Measurements from patent US20220387375A1, “TRPV1 ACTIVATION-MODULATING COMPLEX MIXTURES OF CANNABINOIDS AND/OR TERPENES” (GBS Global Biopharma, Inc., priority 2018, published 2022).

Tests used:
Type in all cases: cell-based
[1] = molecular target: T1, TRPM8 (Homo sapiens, UniProt Q7Z2W7); test: Bulk calcium assay (Fluo-4) in HEK cells overexpressing TRPM8
T1 construct: host or cells: HEK TRex293
Description: (§1) HEK TRexTRPV1 were cultured in DMEM, 10% Fetal Bovine Serum, 2 mM Lglutamine, 10 μg/ml Blasticidin (Calbiochem, San Diego Calif.), 400 μg/ml Zeocin (InvivoGen, San Diego Calif.), where indicated transgene expression was induced using 1 μg/ml Tetracycline for 16-24 hrs. Unless otherwise indicated, basal expression of TRPV1 without induction was sufficient for these studies, and comparisons were made to untransfected HEK where needed. HEKTRex293 over-expressing human TRPV2, human TRPA1 and human TRPM8 were obtained from SB Drug Discovery (Glasgow, Scotland) and cultured as described above. The cannabinoids and terpenes were assayed in HEK cells that have been transfected with the TRPV1 ion channel protein. These cells are called HEK293-V1 cells.
(§2) Cells were washed and incubated with 0.2 micromolar Fluo-4 for 30 minutes at 37° C. in a standard modified Ringer's solution of the following composition (in mM): NaCl 145, KCl 2.8, CsCl 10, CaCl2 10, MgCl2 2, glucose 10, Hepes·NaOH 10, pH 7.4, 330 mOsm. Cells were transferred to 96-well plates at 50,000 cells/well and stimulated as indicated. Calcium signals were acquired using a Flexstation 3 (Molecular Devices, Sunnydale, USA). Data was analyzed using SoftMax® Pro 5 (Molecular Devices). Where indicated, nomically calcium-free external conditions were achieved by the preparation of 0 mM CaCl2 Ringer solution containing 1 mM EGTA.
(§3) Calcium responses mediated by TRPA1, TRPM8, TRPV2, and TRPV1 were tested by calcium assay in the cell culture system. Cells were washed and incubated with 0.2 μM fluo-4 acetoxymethyl ester (“Fluo-4”) for 30 minutes at 37° C. in a standard modified Ringer's solution of the following composition (in mM): NaCl 145, KCl 2.8, CsCl 10, CaCl2 10, MgCl2 2, glucose 10, Hepes·NaOH 10, pH 7.4, 330 mOsm. Cells were transferred to 96-well plates at 50,000 cells/well and stimulated with 10 μM myrcene diluted in DMSO. Vehicle (DMSO) was used as a negative control. Vehicle traces were subtracted from the myrcene traces for each cell line.
(§4) The potential for different cannabinoids to target specific TRP channels, or to co-target more than one channel type, are of potential therapeutic options for the treatment and management of pain. Comparison of the impacts of a variety of cannabinoid on overexpression systems for TRPV2, TRPM8, and TRPA1 were performed in a side-by-side fashion, under bulk calcium assays where the measurements with each trace representing averaged triplicates of 100,000 cells per sample. As shown in FIGS. 41-43 and summarized in Table 3, there are clear differences in responsiveness between cannabinoids at a single channel type than between channel types to a given cannabinoid.

[2] = molecular target: T2, TRPV1 (Rattus norvegicus, UniProt O35433); test: Whole-cell patch clamp of TRPV1 currents in HEK293 cells overexpressing TRPV1 (HEK293-V1); conditions: for Max I amplitude: 120 s, Ca 1 mM external, unbuffered internal calcium
T2 construct: FLAG; expressed in transfected cells
Description: as §1
This technique is used to study ionic currents from HEK293-V1. The voltage across the cell membrane is controlled and the ionic currents associated with changes in voltage are measured. A micropipette tip is pulled to a few micrometers in diameter followed by heating the tip to produce a smooth surface that assists in forming a high resistance seal with the cell membrane. To obtain this high resistance seal, the micropipette is pressed against a cell membrane and suction is applied. The membrane then fuses onto the glass surface creating a high resistance in the gigaohm range. This makes it possible to isolate electronically the ionic currents measured across the membrane patch or across the entire cell.
Patch-clamp experiments were performed in the whole-cell configuration at 21-25° C. Patch pipettes had resistances of 2-3 MΩ. Data was acquired with PatchMaster software (HEKA, Lambrecht, Germany), controlling an EPC-9 amplifier. Voltage ramps of 50 ms spanning the voltage range from −100 to 100 mV were delivered from a holding potential of 0 mV at a rate of 0.5 Hz over a period of 500 ms to 180 seconds (3 minutes). Voltages were corrected for a liquid junction potential of 10 mV. Currents were filtered at 2.9 kHz and digitized at 100 μs intervals. Capacitive currents were determined and corrected before each voltage ramp. The development of currents for a given potential was extracted from individual ramp current records by measuring the current amplitudes at voltages of −80 mV and +80 mV. Data were analyzed with FitMaster (HEKA, Lambrecht, Germany), and IgorPro (WaveMetrics, Lake Oswego, Oreg., USA). Where applicable, statistical errors of averaged data are given as mean±s.e.m with n determinations. The activated current amplitudes are analyzed by nA rather than pA/pF. […] Also the cell size selected for patching was in the 9 -12 pF range.
For patch-clamp recordings, HEK293 cells were kept in a standard sodium-based external Ringer's solution containing (mM): 140 NaCl, 1 CaCl2, 2 MgCl2, 2.8 KCl, 11 glucose, 10 HEPES-NaOH with a pH of 7.2 and osmolarity of 300 mOsmol. To assess the effects of external Calcium (Ca) on TRPV1 inactivation kinetics, Ca at different levels were tested including 0, 1, and 3 mM. In Experiments with zero external Ca, EGTA 10 mM was added and the Na concentration was lowered to 130 mM to maintain standard osmotic conditions at 300 mOsmol. For rapid external solution application and exchanges we used the SmartSquirt delivery system (Auto-Mate Scientific, San Francisco Calif., USA) that included four cryo tubes allowing for solution exchanges within one patch. This system included a ValveLink TTL interface between the electronic valves and the EPC10 amplifier (HEKA, Lambrecht, Germany). This electronic configuration allowed for programmable solution changes via the PatchMaster software (HEKA, Lambrecht, Germany).

[3] = molecular target: T3, TRPA1 (Homo sapiens, UniProt O75762); test: Bulk calcium assay (Fluo-4) in HEK cells overexpressing TRPA1
T3 construct: host or cells: HEK TRex293
Description: as §1, §2, §3, §4

[4] = CBD-induced current, internal Ca2+ 0, external Ca2+ 0 mM
[5] = CBD-induced current, internal Ca2+ 0, external Ca2+ 1 mM
[6] = CBD-induced current, internal Ca2+ 0, external Ca2+ 3 mM
[7] = CBD-induced current, internal Ca2+ 180 nM, external Ca2+ 0 mM
[8] = CBD-induced current, internal Ca2+ 180 nM, external Ca2+ 1 mM
[9] = CBD-induced current, internal Ca2+ 180 nM, external Ca2+ 3 mM
[10] = CBD-induced current, internal Ca2+ >620 nM (free Ca2+), external Ca2+ 0 mM
[11] = CBD-induced current, internal Ca2+ >620 nM (free Ca2+), external Ca2+ 1 mM
[12] = CBD-induced current, internal Ca2+ >620 nM (free Ca2+), external Ca2+ 3 mM

T2 sequence (O35433 whole entry): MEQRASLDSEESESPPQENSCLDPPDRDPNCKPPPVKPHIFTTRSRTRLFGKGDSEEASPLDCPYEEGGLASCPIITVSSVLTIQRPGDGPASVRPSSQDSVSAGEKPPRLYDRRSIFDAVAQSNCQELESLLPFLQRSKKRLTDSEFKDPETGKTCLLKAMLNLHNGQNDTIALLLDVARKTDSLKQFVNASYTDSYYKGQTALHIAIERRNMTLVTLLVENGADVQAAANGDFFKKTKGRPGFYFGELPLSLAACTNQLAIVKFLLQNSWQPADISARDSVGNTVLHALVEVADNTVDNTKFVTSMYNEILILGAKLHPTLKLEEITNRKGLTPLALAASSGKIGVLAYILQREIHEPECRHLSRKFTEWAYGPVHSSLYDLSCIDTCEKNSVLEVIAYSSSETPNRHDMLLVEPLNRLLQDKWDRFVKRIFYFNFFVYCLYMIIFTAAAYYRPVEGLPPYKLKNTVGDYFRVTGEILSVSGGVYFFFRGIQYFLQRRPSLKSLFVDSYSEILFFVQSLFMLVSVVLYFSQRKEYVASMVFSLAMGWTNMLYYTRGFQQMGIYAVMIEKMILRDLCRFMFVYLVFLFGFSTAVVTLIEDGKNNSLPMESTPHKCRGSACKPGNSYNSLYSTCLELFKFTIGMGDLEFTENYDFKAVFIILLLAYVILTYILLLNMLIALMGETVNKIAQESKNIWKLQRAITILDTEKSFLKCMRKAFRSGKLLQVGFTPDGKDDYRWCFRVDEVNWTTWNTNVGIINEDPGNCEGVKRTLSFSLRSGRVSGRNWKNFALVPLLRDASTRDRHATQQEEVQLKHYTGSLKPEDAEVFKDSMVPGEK
T1 sequence (Q7Z2W7 whole entry): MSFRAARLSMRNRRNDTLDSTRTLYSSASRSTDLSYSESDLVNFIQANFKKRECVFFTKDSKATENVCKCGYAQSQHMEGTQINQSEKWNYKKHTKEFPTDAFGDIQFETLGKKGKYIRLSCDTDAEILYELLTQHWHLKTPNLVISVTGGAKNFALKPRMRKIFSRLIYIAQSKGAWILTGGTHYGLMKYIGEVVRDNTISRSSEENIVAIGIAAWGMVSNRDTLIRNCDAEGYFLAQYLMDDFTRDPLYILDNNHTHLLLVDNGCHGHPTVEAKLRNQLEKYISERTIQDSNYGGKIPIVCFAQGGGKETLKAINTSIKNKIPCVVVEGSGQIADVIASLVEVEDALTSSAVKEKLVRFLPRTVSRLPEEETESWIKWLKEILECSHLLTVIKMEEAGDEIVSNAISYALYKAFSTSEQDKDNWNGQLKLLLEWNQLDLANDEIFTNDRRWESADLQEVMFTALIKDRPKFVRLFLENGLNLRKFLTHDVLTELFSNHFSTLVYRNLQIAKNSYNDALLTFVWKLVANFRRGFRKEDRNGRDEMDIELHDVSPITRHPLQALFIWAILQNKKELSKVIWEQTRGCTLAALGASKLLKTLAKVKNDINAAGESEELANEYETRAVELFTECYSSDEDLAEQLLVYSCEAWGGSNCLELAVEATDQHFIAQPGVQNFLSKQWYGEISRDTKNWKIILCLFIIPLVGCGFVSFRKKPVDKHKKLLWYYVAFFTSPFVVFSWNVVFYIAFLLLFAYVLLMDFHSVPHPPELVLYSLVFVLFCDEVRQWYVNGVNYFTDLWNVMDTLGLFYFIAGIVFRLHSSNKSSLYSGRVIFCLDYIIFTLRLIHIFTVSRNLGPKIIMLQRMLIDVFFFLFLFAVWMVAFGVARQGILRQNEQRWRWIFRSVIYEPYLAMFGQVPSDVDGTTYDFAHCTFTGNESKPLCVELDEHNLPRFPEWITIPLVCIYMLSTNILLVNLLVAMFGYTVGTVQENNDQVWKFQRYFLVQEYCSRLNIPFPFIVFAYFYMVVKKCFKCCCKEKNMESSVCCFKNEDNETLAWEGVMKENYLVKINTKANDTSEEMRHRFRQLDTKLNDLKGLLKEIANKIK
T3 sequence (O75762 whole entry): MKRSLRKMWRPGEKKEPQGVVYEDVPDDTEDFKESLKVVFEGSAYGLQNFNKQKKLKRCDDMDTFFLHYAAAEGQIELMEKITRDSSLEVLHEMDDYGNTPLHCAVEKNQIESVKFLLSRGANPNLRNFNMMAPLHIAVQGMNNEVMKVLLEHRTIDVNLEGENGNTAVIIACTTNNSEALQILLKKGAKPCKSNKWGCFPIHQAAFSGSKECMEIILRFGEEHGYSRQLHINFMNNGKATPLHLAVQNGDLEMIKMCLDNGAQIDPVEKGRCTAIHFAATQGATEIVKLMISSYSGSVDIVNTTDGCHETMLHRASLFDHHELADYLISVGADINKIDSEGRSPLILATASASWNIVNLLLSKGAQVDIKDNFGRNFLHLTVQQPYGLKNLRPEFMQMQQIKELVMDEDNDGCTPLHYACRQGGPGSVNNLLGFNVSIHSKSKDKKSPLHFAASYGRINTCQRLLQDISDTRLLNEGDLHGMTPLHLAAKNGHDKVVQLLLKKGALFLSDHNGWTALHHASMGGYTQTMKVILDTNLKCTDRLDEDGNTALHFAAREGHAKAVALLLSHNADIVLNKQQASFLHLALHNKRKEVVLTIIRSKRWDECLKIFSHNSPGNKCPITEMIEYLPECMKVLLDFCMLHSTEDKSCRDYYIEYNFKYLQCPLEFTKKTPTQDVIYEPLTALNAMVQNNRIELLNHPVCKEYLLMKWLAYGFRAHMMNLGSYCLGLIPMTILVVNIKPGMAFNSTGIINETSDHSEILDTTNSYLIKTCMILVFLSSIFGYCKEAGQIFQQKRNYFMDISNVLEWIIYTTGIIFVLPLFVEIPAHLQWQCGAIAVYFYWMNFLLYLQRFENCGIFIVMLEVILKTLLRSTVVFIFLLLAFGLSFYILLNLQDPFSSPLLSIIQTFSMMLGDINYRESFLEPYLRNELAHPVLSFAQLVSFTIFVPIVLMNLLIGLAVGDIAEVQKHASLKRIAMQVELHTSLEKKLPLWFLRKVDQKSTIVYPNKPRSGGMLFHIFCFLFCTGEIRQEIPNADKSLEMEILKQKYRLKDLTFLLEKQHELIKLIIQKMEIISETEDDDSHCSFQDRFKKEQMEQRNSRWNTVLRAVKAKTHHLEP

C=C(C)[C@@H]1CCC(C)=C[C@H]1c1c(O)cc(CCCCC)cc1O [CBD, Cannabidiol]
mean maximal Ca^2+ signal RFU achieved 0-180 s (SD), TRM8 [1]: 1.12 (0.02) RFU
EC50 [2]: 30 µM
type of TRPV1 current recorded ([2]; CBD 30 μM, Ca 0 internally and externally): outwardly rectifying current
transition to the pore-dilated state ([2]; CBD up to 150 μM, induction times 0-25 hours, currents about 10 nA): no transition to the pore-dilated state
Max rate of activation ([2]; CBD-induced current (30 μM, FIG. 22), internal Ca2+ 0, external Ca2+ 0 mM): 1.1% per S
Max rate of activation ([2]; CBD-induced current (30 μM, FIG. 22), internal Ca2+ 0, external Ca2+ 1 mM): 1.9% per S
Max rate of activation ([2]; CBD-induced current (30 μM, FIG. 22), internal Ca2+ 0, external Ca2+ 3 mM): 3% per S
Rate of inactivation [2, 4]: 0.41% per S
Time to max amplitude [2, 4]: 136 S
Rate of inactivation [2, 5]: 0.82% per S
Time to max amplitude [2, 5]: 94 S
Rate of inactivation [2, 6]: 0.94% per S
Time to max amplitude [2, 6]: 82 S
Max rate of activation [2, 7]: 1.6% per S
Rate of inactivation [2, 7]: 0.67% per S
Time to max amplitude [2, 7]: 108 S
Max rate of activation [2, 8]: 1.6% per S
Rate of inactivation [2, 8]: 0.71% per S
Time to max amplitude [2, 8]: 116 S
Max rate of activation [2, 9]: 2.4% per S
Rate of inactivation [2, 9]: 0.72% per S
Time to max amplitude [2, 9]: 92 S
Max rate of activation [2, 10]: 0.83% per S
Rate of inactivation [2, 10]: 0.49% per S
Time to max amplitude [2, 10]: 160 S
Max rate of activation [2, 11]: 1.5% per S
Rate of inactivation [2, 11]: 1.1% per S
Time to max amplitude [2, 11]: 120 S
Max rate of activation [2, 12]: 2.7% per S
Rate of inactivation [2, 12]: 1% per S
Time to max amplitude [2, 12]: 88 S
IV relationship / TRPV1 channel state ([2]; after cannabinoid at 50 (voltage ramp)): outwardly-rectifying IV curve consistent with un-dilated TRPV1 (state 1)
inward current induced ([2]; cannabinoid at 50 (FIGS. 3A, 4A, 6A, 7A), applied at data point 60): 4-6 nA
time course of induced TRPV1 current (sustained or inactivating) ([2]; cannabinoid at 50, 5 μM myrcene or 1 μM capsaicin): sustained
current development and inactivation ([2]; constant external calcium, internal Ca2+ 0 nM, 180 nM, 620 nM, FCa (FIGS. 23, 24)): gradual current development, which inactivated only when internal calcium is buffered above zero
Rate of inactivation ([2]; dose 10 micromolar): 0 dpsec^−1
Time to max ([2]; dose 10 micromolar): 178 s
Max I amplitude ([2]; dose 10 micromolar): 0.8 nA
Rate of inactivation ([2]; dose 30 micromolar): 0 dpsec^−1
Time to max ([2]; dose 30 micromolar): 180 s
Max I amplitude ([2]; dose 30 micromolar): 2.2 nA
Rate of inactivation ([2]; dose 50 micromolar): .02 dpsec^−1
Time to max ([2]; dose 50 micromolar): 130 s
Max I amplitude ([2]; dose 50 micromolar): 1.6 nA
Rate of inactivation ([2]; dose 150 micromolar): .042 dpsec^−1
Time to max ([2]; dose 150 micromolar): 96 s
Max I amplitude ([2]; dose 150 micromolar): 3.5 nA
mean maximal Ca^2+ signal RFU achieved 0-180 s (SD), TRPA1 [3]: 1.28 (0.03) RFU
